Read-outs that look alike come from different tables or passages of the source.

Here are results for one molecule from paper PMC6960228, “Ethoxysanguinarine, a Novel Direct Activator of AMP-Activated Protein Kinase, Induces Autophagy and Exhibits Therapeutic Potential in Breast Cancer Cells” (Frontiers in Pharmacology, 2020).

The test system of data set [1] is LC3-II and Beclin-1 in MCF-7, MDA-MB-231, and MDA-MB-436 cells. Kind of data set: Western blot of autophagy markers. The data set is classed as cell-based, human. The following applies: dose- and time-dependent. Here is the method:
(§1) Cells were lysed in radioimmunoprecipitation assay buffer containing 50 mM Tris, pH 8.0, 150 mM NaCl, 0.1% SDS, 0.5% sodium deoxycholate, 1% NP-40, 1 mM DTT, 1 mM NaF, 1 mM sodium orthovanadate, 1 mM phenylmethylsulfonyl fluoride (PMSF; Sigma-Aldrich; Merck KGaA), and 1% protease inhibitors cocktail (EMD Millipore, Billerica, MA, USA). Protein concentration was determined using the Bradford method. Equal amounts of sample (25 µg) were separated by SDS-PAGE (8–12% gels). Electrophoresed proteins were then transferred onto polyvinylidene fluoride membranes (EMD Millipore, Billerica, MA, USA). The membranes were blocked with 5% skimmed milk in Tris-buffered saline at room temperature for 1 h. Following blocking, membranes were incubated overnight at 4°C with primary antibodies and then rinsed with Tris-buffered saline with Tween 20. […]
Figure 2 Eth induces autophagy in BC cells. […] (C): MCF-7, MDA-MB-231, or MDA-MB-436 cells transfected with pQCXIP-GFP-LC3 plasmid were treated with increasing concentrations of Eth for 24 h, and assessed by immunoﬂuorescence analyses. […] (D): MDA-MB-231 or MDA-MB-436 cells transfected with pQCXIP-GFP-LC3 plasmid were treated with Eth (2.0 µM) and/or 3-MA (1 mM) for 24 h, and assessed by immunoﬂuorescence analyses. […] (F): MCF-7, MDA-MB-231, or MDA-MB-436 cells were treated with Eth (3.5 µM, 3.0 µM, or 3.0 µM) and/or 3-MA (1 mM) for 24 h and analyzed by MTT assay. […]
(In general: A western blot detects proteins with antibodies after separation by electrophoresis.)

The subject of data set [2] is ACC, Glut1, Glut3, and Glut4 in BC cells. Kind of data set: Western blot of energy metabolism proteins. The format is cell-based, human. The procedure:
as §1

A short description of the next data set: Pharmacokinetic study. The data set is classed as in vivo, Sprague-Dawley rats. The following applies: rat; for MRT last: read-out: MRT0-t. The procedure: Eleven Sprague–Dawley rats (220–250 g, female) were bought from Hunan SJA Laboratory Animal Co., Ltd. (Changsha, China), and maintained and monitored in a specific pathogen-free environment. They were fasted overnight before the experiments. All rat studies were conducted according to protocols approved by the Animal Ethics Committee of Hubei University of Medicine. Six rats were administered with Eth (2 mg/kg) by intravenous injection, and the other five rats were inoculated with Eth (15 mg/kg) by intragastric injection. Blood samples of […] were collected from the orbit at the time points indicated. The plasma concentrations of Eth were determined by […] (Figure S1). The pharmacokinetic parameters were obtained from the pharmacokinetic software DAS 2.0 (Drug and Statistics Version 2.0).
We then tested the pharmacokinetic features of Eth in Sprague-Dawley rats. To do this, six rats were administered Eth (2 mg/kg) by intravenous (i.v.) injection, and another five rats were inoculated with Eth (15 mg/kg) by intragastric (i.g.) injection. the mean plasma concentration-time profiles are shown in Figures 6J, K, and the main pharmacokinetic parameters are summarized in Table 3. […] Therefore, Eth could be a potential therapeutic agent against BC.

The mark [3] stands for this setting: female, Sprague-Dawley, plasma, iv, i.v. (2 mg/kg).
Setting [4] is: female, Sprague-Dawley, plasma, po, i.g. (15 mg/kg).

In the case of `CCOC1c2c(ccc3c2OCO3)-c2ccc3cc4c(cc3c2N1C)OCO4` (centres unmarked) [Eth, Ethoxysanguinarine], the “accumulation of LC3-II and Beclin-1” value in data set [1] is “induced the accumulation of LC3-II and Beclin-1”. In data set [2], the “expression and activation of ACC” value is “no significant effect”. Moreover, the “expression of Glut1, Glut3, and Glut4” value in data set [2] (MCF-7 or MDA-MB-231 cells, 24 h) is “downregulated”. In addition, in “Pharmacokinetic study” (setting [3]), the AUC(0-t) amounted to 3640 ± 1560 ng·h/mL, the Cmax was 3580 ± 756 ng/mL, the half-life is 3.54 ± 1.79 h and the MRT last amounted to 2.18 ± 0.462 h. For the same molecule, the clearance in “Pharmacokinetic study” (female, Sprague-Dawley, plasma, iv, i.v. (2 mg/kg), read-out: CLz (converted)) was 9.32 mL/min/kg. Also, in the data set “Pharmacokinetic study” (setting [4]), the AUC(0-t) was 3390 ± 592 ng·h/mL, the Cmax turned out to be 498 ± 110 ng/mL, the half-life is 4.05 ± 1.58 h and the MRT last was 7.03 ± 1.01 h. For the same molecule, the Tmax in the data set “Pharmacokinetic study” (female, Sprague-Dawley, plasma, iv, 2 mg/kg, i.v. (2 mg/kg), read-out: Tmax) is 0.083 h. Also, the Tmax in the data set “Pharmacokinetic study” (female, Sprague-Dawley, plasma, iv, 2 mg/kg, i.v. (2 mg/kg), read-out: time of peak plasma concentration (converted)) is 0.033 h. For the same molecule, in “Pharmacokinetic study” (female, Sprague-Dawley, plasma, po, 15 mg/kg, i.g. (15 mg/kg), read-out: Tmax), the Tmax amounted to 2 h. In the data set “Pharmacokinetic study” (i.g. (15 mg/kg)), this molecule registered a BA of 12.43% and a CLz of 73.63 ± 14.9 mL/min/kg.

The AUC(0-t) is exposure summed from dosing to a finite time, without extrapolation to infinity. Low readings indicate low exposure, high ones high exposure. The term Cmax denotes the highest concentration seen after dosing. What is called half-life is how long it takes for the measured level to halve. Read a low half-life as fast loss.
